Measurements reported in patent publication US20200085839A1, “COMBINATION OF IMMUNOTHERAPEUTICS AND BISFLUOROALKYL-1,4-BENZODIAZEPINONE COMPOUNDS FOR TREATING LYMPHOMAS” (Ayala Pharmaceuticals Inc., priority 2018, published 2020).

What was measured:
Assay in all cases: Soluble (shed) BCMA by ELISA
Type in all cases: cell-based, human
[1] = tested on: RPMI-6666 cells (Hodgkin's Lymphoma)
Protocol: (§1) […] cell lines, comprising 9 subtypes of lymphomas (see Table 1), were seeded at 1×10^5 cells/well in a total volume of 250 μl into a 96-well plate. The cells were cultured in RPMI medium supplemented with 10% FCS. Compound (22) was added to the cell cultures at a concentration of 10 μM, 1 μM, 100 nM, 10 nM, 1 nM, 100 pM, 10 pM, 1 pM, and 100 fM, and cell lines (8 from Hadassah Medical Center, 31 from Eurofins) were incubated at 37° C. for 24 hours with Compound (22). Following incubation, the cells were collected and BCMA levels were evaluated on the cell surface for cell-bound BCMA. Cells were stained with an anti-BCMA antibody (PE anti-human 19F2 BCMA, Biolegend), and cell surface BCMA levels were determined by FACS analysis (Mean Fluorescence Intensity. Soluble BCMA levels were analyzed by ELISA (Human BCMA/TNFRSF17 DuoSet kit: R&D Systems).

SUDHL-8 cells (DLBCL) = tested on: SUDHL-8 cells (DLBCL)
Protocol: as §1

[2] = tested on: GA-10 cells (Burkitt's Lymphoma)
Protocol: as §1

[3] = tested on: REC-1 cells (Mantle Cell Lymphoma)
Protocol: as §1

[4] = tested on: Jeko-1 cells (Mantle Cell Lymphoma)
Protocol: as §1

[5] = tested on: EB-3 cells (Burkitt's Lymphoma)
Protocol: as §1

[6] = tested on: U937 cells (Histiocytic Lymphoma)
Protocol: as §1

DB cells (DLBCL) = tested on: DB cells (DLBCL)
Protocol: as §1

[7] = tested on: Daudi cells (Burkitt's Lymphoma)
Protocol: as §1

[8] = tested on: H9 cells (Cutaneous T-cell Lymphoma)
Protocol: as §1

[9] = tested on: MHHH-PREB-1 cells (B-cell Lymphoma)
Protocol: as §1

[10] = tested on: TUR cells (Histiocytic Lymphoma)
Protocol: as §1

[11] = tested on: L-248 cells (Hodgkin's Lymphoma)
Protocol: as §1

[12] = tested on: BCP-1 cells (B-cell Lymphoma)
Protocol: as §1

DOHH-2 cells (DLBCL) = tested on: DOHH-2 cells (DLBCL)
Protocol: as §1

[13] = tested on: CA46 cells (Burkitt's Lymphoma)
Protocol: as §1

ST486 cells (DLBCL) = tested on: ST486 cells (DLBCL)
Protocol: as §1

[14] = tested on: SUDHL-4 (Eurofins) cells (DLBCL)
Protocol: as §1

[15] = tested on: Ramos cells (Burkitt's Lymphoma)
Protocol: as §1

[16] = tested on: SR cells (Anaplastic Large Cell Lymphoma)
Protocol: as §1

[17] = tested on: CRO-AP2 cells (B-cell Lymphoma)
Protocol: as §1

[18] = tested on: BC-1 cells (B-cell Lymphoma)
Protocol: as §1

[19] = tested on: EB-2 cells (Burkitt's Lymphoma)
Protocol: as §1

[20] = tested on: JVM-2 cells (Mantle Cell Lymphoma)
Protocol: as §1

[21] = Homo sapiens, read-out: Shed BCMA (pg/ml) EC50

Cc1cccc2c1NC(=O)[C@@H](NC(=O)[C@H](CCC(F)(F)F)[C@H](CCC(F)(F)F)C(N)=O)N=C2c1cccc(F)c1 [Compound (22), (2R,3S)—N-((3S)-5-(3-fluorophenyl)-9-methyl-2-oxo-2,3-dihydro-1H-1,4-benzodiazepin-3-yl)-2,3-bis(3,3,3-trifluoropropyl)succinamide]
Shed BCMA (pg/ml) % Reduction [1]: 92% | EC50 [1, 21]: 9.1 nM | Shed BCMA (pg/ml) % Reduction (SUDHL-8 cells (DLBCL)): 100% | EC50 (SUDHL-8 cells (DLBCL); Homo sapiens, SU-DHL-8, read-out: Shed BCMA (pg/ml) EC50): 0.5 nM | Shed BCMA (pg/ml) % Reduction [2]: 83% | soluble BCMA 1 nM Compound (22) ([2]; 1 nM, 24 h): >2000 | soluble BCMA 10 nM Compound (22) ([2]; 10 nM, 24 h): 800.8 | soluble BCMA 100 nM Compound (22) ([2]; 100 nM, 24 h): 398.1 | EC50 [2, 21]: 7.4 nM | Shed BCMA (pg/ml) % Reduction [3]: BLQ | EC50 ([3]; Homo sapiens, Rec1, read-out: Shed BCMA (pg/ml) EC50): > 10000 nM | EC50 ([4]; Homo sapiens, JeKo-1, read-out: Shed BCMA (pg/ml) EC50): 1.1 nM | soluble BCMA 10 nM Compound (22) ([4]; JEKO-1, 10 nM, 24 h): 338 | Shed BCMA (pg/ml) % Reduction ([4]; Jeko-1): 76% | soluble BCMA 1 nM Compound (22) ([4]; Jeko-1, 1 nM, 24 h): 1245.6 | soluble BCMA 100 nM Compound (22) ([4]; Jeko-1, 100 nM, 24 h): 305.6 | Shed BCMA (pg/ml) % Reduction [5]: BLQ | EC50 [5, 21]: > 10000 nM | Shed BCMA (pg/ml) % Reduction [6]: BLQ | EC50 ([6]; Homo sapiens, U-937, read-out: Shed BCMA (pg/ml) EC50): > 10000 nM | Shed BCMA (pg/ml) % Reduction (DB cells (DLBCL)): 100% | soluble BCMA 1 nM Compound (22) (DB cells (DLBCL); 1 nM, 24 h): 270.5 | soluble BCMA 10 nM Compound (22) (DB cells (DLBCL); 10 nM, 24 h): 40.5 | soluble BCMA (DB cells (DLBCL); FIG. 9B): decreased soluble BCMA | EC50 (DB cells (DLBCL); [21]): 1 nM | Shed BCMA (pg/ml) % Reduction [7]: 100% | soluble BCMA 1 nM Compound (22) ([7]; 1 nM, 24 h): 162.6 | soluble BCMA 10 nM Compound (22) ([7]; 10 nM, 24 h): 36.8 | soluble BCMA ([7]; FIG. 7B): decreased soluble BCMA | EC50 [7, 21]: 0.5 nM | Shed BCMA (pg/ml) % Reduction [8]: BLQ | EC50 [8, 21]: > 10000 nM | Shed BCMA (pg/ml) % Reduction [9]: 97% | soluble BCMA 1 nM Compound (22) ([9]; 1 nM, 24 h): 227.3 | soluble BCMA 10 nM Compound (22) ([9]; 10 nM, 24 h): 75.4 | soluble BCMA 100 nM Compound (22) ([9]; 100 nM, 24 h): 60.1 | EC50 ([9]; Homo sapiens, B-cell, read-out: Shed BCMA (pg/ml) EC50): 0.6 nM | Shed BCMA (pg/ml) % Reduction [10]: BLQ | EC50 [10, 21]: > 10000 nM | Shed BCMA (pg/ml) % Reduction [11]: BLQ | EC50 [11, 21]: > 10000 nM | Shed BCMA (pg/ml) % Reduction [12]: 94% | soluble BCMA 1 nM Compound (22) ([12]; 1 nM, 24 h): 1665.7 | soluble BCMA 10 nM Compound (22) ([12]; 10 nM, 24 h): 1610 pg/mL | soluble BCMA 100 nM Compound (22) ([12]; 100 nM, 24 h): 460.6 | soluble BCMA ([12]; FIG. 6B): decreased soluble BCMA | EC50 [12, 21]: 48 nM | Shed BCMA (pg/ml) % Reduction (DOHH-2 cells (DLBCL)): 93% | soluble BCMA 1 nM Compound (22) (DOHH-2 cells (DLBCL); 1 nM, 24 h): 1272.1 | soluble BCMA 10 nM Compound (22) (DOHH-2 cells (DLBCL); 10 nM, 24 h): 136 | soluble BCMA 100 nM Compound (22) (DOHH-2 cells (DLBCL); 100 nM, 24 h): 98.4 | EC50 (DOHH-2 cells (DLBCL); [21]): 2.2 nM | Shed BCMA (pg/ml) % Reduction ([13]; CA46): 90% | soluble BCMA 1 nM Compound (22) ([13]; CA-46, 1 nM, 24 h): 1775.4 | soluble BCMA 10 nM Compound (22) ([13]; CA-46, 10 nM, 24 h): 330 | soluble BCMA 100 nM Compound (22) ([13]; CA-46, 100 nM, 24 h): 173.2 | EC50 ([13]; Homo sapiens, CA46, read-out: Shed BCMA (pg/ml) EC50): 7.4 nM | Shed BCMA (pg/ml) % Reduction (ST486 cells (DLBCL)): 90% | EC50 (ST486 cells (DLBCL); [21]): 0.9 nM | Shed BCMA (pg/ml) % Reduction [14]: 87% | EC50 ([14]; Homo sapiens, SU-DHL-4, read-out: Shed BCMA (pg/ml) EC50): 6.6 nM | Shed BCMA (pg/ml) % Reduction [15]: 76% | soluble BCMA 1 nM Compound (22) ([15]; 1 nM, 24 h): >2000 | soluble BCMA 10 nM Compound (22) ([15]; 10 nM, 24 h): 613.3 | soluble BCMA 100 nM Compound (22) ([15]; 100 nM, 24 h): 504.3 | EC50 [15, 21]: 8.6 nM | Shed BCMA (pg/ml) % Reduction [16]: BLQ | EC50 [16, 21]: > 10000 nM | Shed BCMA (pg/ml) % Reduction [17]: 91% | soluble BCMA 1 nM Compound (22) ([17]; 1 nM, 24 h): 1895.3 | soluble BCMA 10 nM Compound (22) ([17]; 10 nM, 24 h): 409.5 | soluble BCMA 100 nM Compound (22) ([17]; 100 nM, 24 h): 126.1 | EC50 [17, 21]: 4.8 nM | Shed BCMA (pg/ml) % Reduction [18]: 30% | soluble BCMA 1 nM Compound (22) ([18]; 1 nM, 24 h): >2000 | soluble BCMA 10 nM Compound (22) ([18]; 10 nM, 24 h): 1841.6 | soluble BCMA 100 nM Compound (22) ([18]; 100 nM, 24 h): 878.6 | EC50 ([18]; Homo sapiens, BC1, read-out: Shed BCMA (pg/ml) EC50): 84 nM | soluble BCMA 1 nM Compound (22) ([19]; EB2, 1 nM, 24 h): >2000 | soluble BCMA 10 nM Compound (22) ([19]; EB2, 10 nM, 24 h): 597.7 | soluble BCMA 100 nM Compound (22) ([19]; EB2, 100 nM, 24 h): 479.4 | Shed BCMA (pg/ml) % Reduction ([19]; EB-2): 70% | EC50 ([19]; Homo sapiens, EB2, EB-2, read-out: Shed BCMA (pg/ml) EC50): 7.1 nM | Shed BCMA (pg/ml) % Reduction [20]: 57% | EC50 [20, 21]: 75.3 nM
